How the values were obtained:
[1] = biological target: T1, MpeB (beta-subunit of phycoerythrin II) (Synechococcus sp. RS9916, UniProt Q05Q49); experiment: LC-MS-MS of trypsin-digested purified protein after co-expression with lyases in E. coli; assay type: binding; conditions: covalent
T1 construct: with C-phycoerythrin class II alpha chain (phycoerythrin II alpha subunit)
From the text: LC-MS-MS of trypsin-digested purified protein after co-expression with lyases in E. coli on MpeB (beta-subunit of phycoerythrin II)

[2] = biological target: T2, CpeB (beta-subunit of phycoerythrin I) (Synechococcus sp. RS9916, UniProt Q05Q60, C50A/C61A); experiment: zinc-enhanced bilin fluorescence of gel bands over anti-CpeB western blot; assay type: binding; conditions: covalent, site C82, attached by CpeS, co-expressed with CpeA, MpeV, CpeZ and bilin synthesis genes
T2 construct: with C-phycoerythrin class I alpha chain (phycoerythrin I alpha subunit)
From the text: zinc-enhanced bilin fluorescence of gel bands over anti-CpeB western blot on CpeB (beta-subunit of phycoerythrin I)

CpeS = biological target: T3, CpeS (Synechococcus sp. RS9916, UniProt Q05Q42); experiment: co-expression in E. coli; absorbance, zinc-enhanced fluorescence and LC-MS-MS of purified CpeB; assay type: cell-based; conditions: protein co-substrate CpeB or MpeB, site C82; CpeZ enhances
T3 construct: recombinant, pCpeS plasmid; co-expressed in E. coli with bilin synthesis genes and phycoerythrin subunits; CpeS itself not assayed purified
T3 sequence (Q05Q42 1-178): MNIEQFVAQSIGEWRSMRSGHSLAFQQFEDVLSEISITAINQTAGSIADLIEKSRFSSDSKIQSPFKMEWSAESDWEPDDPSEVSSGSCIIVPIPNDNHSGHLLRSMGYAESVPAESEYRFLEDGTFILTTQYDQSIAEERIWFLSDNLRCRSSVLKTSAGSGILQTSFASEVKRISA

[3] = biological target: T4, CpeB (beta-subunit of phycoerythrin I) (Synechococcus sp. RS9916, UniProt Q05Q60, C50A); experiment: LC-MS-MS of trypsin-digested purified protein after co-expression with lyases in E. coli; assay type: binding
T4 construct: with C-phycoerythrin class I alpha chain (phycoerythrin I alpha subunit)
From the text: LC-MS-MS of trypsin-digested purified protein after co-expression with lyases in E. coli on CpeB (beta-subunit of phycoerythrin I) | no peptide ions from the C50A mutant coexpressions modified with PUB at the C61 position

[4] = biological target: T5, CpeB (beta-subunit of phycoerythrin I) (Synechococcus sp. RS9916, UniProt Q05Q60, C61A); experiment: as above; assay type: binding; conditions: covalent, same co-expression
T5 construct: with C-phycoerythrin class I alpha chain (phycoerythrin I alpha subunit)
From the text: (§1) LC-MS-MS of trypsin-digested purified protein after co-expression with lyases in E. coli on CpeB (beta-subunit of phycoerythrin I)

[5] = biological target: T6, CpeB (beta-subunit of phycoerythrin I) (Synechococcus sp. RS9916, UniProt Q05Q60); experiment: as above; assay type: binding; conditions: covalent
T6 construct: with C-phycoerythrin class I alpha chain (phycoerythrin I alpha subunit)
From the text: as §1

[6] = doubly linked at C50 and C61, attached by MpeV, same co-expression

Q: How did the “β-165 / β-82” value ([1]; site C82, attached by CpeS, co-expressed with MpeA, MpeV, CpeZ and bilin synthesis genes) turn out when `C=CC1=C(C)C(CC2=NC(=Cc3[nH]c(C=C4NC(=O)C(C)C4=CC)c(C)c3CCC(=O)O)C(CCC(=O)O)=C2C)NC1=O` (stereo not shown) [PEB, phycoerythrobilin] was run?
A: The value was 99.7%.

Q: What about the “Percentage chromophorylation (% ± SD) ^b” value [2] of the same compound?
A: Its value is 89.0 ± 12.3 % of WT.

Q: And the “co-expression in E. coli; absorbance, zinc-enhanced fluorescence and LC-MS-MS of” value (CpeS)?
A: Its value is “The lyase CpeS is able to attach PEB to CpeB”.

Q: And the “Bilin added ^a” value ([3]; covalent, site C82, attached by CpeS, co-expressed with CpeA, CpeS, MpeV, CpeZ and bilin synthesis genes)?
A: The value was 76.3%.

Q: And the “Bilin added ^a” value ([4]; site C82, attached by CpeS)?
A: The value was 100%.

Q: What about the “β-82 ^b / α-140” value ([5]; site C82, attached by CpeS, co-expressed with CpeA, MpeV, CpeZ and bilin synthesis genes) of the same compound?
A: The value was 98.2%.

Q: What does the source list for `C=CC1=C(C)[C@@H](CC2=N/C(=C\c3[nH]c(C[C@H]4NC(=O)C(C)=C4C=C)c(C)c3CCC(=O)O)C(CCC(=O)O)=C2C)NC1=O` [PUB, phycourobilin]?
A: β-50, 61 [1, 6]: 84.7%; Bilin added ^a ([3]; covalent attachment at C61 tested, not detected, same co-expression): 0%; Bilin added ^a ([4]; single linkage by A ring at C50, attached by MpeV): 7.6%; β-50, 61 ^b / β-159 [5, 6]: 29.4%

Source: publication PMC7948978, “MpeV is a lyase isomerase that ligates a doubly linked phycourobilin on the β-subunit of phycoerythrin I and II in marine Synechococcus” (The Journal of Biological Chemistry, 2020)
